Where a name gives a salt, the structure may show the parent alone. Read-outs that look alike come from different tables or passages of the source. One block for each compound: values may come before it.
What was measured:
[1] = test system: Wistar-rats; experiment: Insulin and blood glucose responses to glucose after i.v. administration of inhibitor; type: in vivo, rat
Procedure: The test group additionally obtained an infusion of the inhibitor of 0.75 M/min over 30 min experimental time (*). The control group received during the same time interval an infusion of inhibitor-free 0.9% saline solution. At starting time t=0 all animals were administered an i.d. glucose dose of 1 g/kg 40% dextrose solution (w/v). Blood samples were collected of all test animals in 10 min time intervals. Glucose was analyzed using whole blood (Lifescan One Touch II analyzer) while DPIV-activity and insulin concentration were analyzed in plasma. […] All data are presented as mean+/−s.e.m.

[2] = molecular target: T1, PepT1 (Oryctolagus cuniculus, UniProt P36836); experiment: Transport characteristics at PepT1-expressing oocytes of X. leavis, two-electrode voltage clamp; type: cell-based
T1 sequence (P36836 1-707): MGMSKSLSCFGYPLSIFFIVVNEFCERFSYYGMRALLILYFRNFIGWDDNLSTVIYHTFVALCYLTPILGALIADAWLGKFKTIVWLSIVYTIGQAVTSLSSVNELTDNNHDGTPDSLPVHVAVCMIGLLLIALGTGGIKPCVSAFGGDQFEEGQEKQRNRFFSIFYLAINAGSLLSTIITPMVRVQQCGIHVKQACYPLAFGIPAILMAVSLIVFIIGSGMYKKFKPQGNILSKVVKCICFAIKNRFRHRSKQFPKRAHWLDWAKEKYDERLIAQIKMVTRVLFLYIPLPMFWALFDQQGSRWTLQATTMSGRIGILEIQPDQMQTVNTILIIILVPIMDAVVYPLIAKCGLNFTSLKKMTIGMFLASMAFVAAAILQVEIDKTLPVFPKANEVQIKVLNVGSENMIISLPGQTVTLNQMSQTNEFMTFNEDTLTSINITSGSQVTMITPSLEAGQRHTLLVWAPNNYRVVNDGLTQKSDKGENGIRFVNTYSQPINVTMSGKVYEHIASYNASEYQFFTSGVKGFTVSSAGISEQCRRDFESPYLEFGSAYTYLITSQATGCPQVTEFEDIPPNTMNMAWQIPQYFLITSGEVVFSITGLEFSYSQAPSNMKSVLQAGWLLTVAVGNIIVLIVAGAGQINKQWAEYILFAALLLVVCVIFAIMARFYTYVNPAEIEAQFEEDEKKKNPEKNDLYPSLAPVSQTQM
Description: (§1) Side chain-modified glutamyl thiazolidines having a structure H-Glu(X)-Thia were synthesised, with polyethylene glycol or glycine oligomers of various chain lengths being used as X (see Method A of example for description of synthesis). The binding characteristics of those derivatives and their transportability by the peptide transporter PepT1 were investigated.

[3] = test system: DPIV and DPIV-like enzymatic activity; experiment: Inhibition of the DPIV-catalyzed hydrolysis of the incretins GIP1-42 and GLP-17-36 in vitro (pooled human serum, MALDI-TOF); type: biochemical; conditions: 20 mM inhibitor; 30 mM peptide; 20% pooled serum; pH 7.6; 30° C.; 24 hours
Description: It is possible to suppress the in vitro hydrolysis of incretins caused by DPIV and DPIV-like enzymatic activity using purified enzyme or pooled human serum (FIG. 1).
Samples were cocrystallized using 2′,6′-dihydroxy-acetophenon as matrix and analyzed by MALDI-TOF-mass spectrometry. Spectra (FIG. 1) display accumulations of 250 single laser shots per sample.
In the control assays containing no inhibitor the incretins were almost completely degraded (FIGS. 1b and 1c, both bottom spectra).

[4] = molecular target: T1, PepT1; experiment: Inhibition of binding of 3H-D-Phe-Ala to PepT1-expressing P. pastoris cells; conditions: read-out: EC50: concentration inhibiting the binding of 3H-D-Phe-Ala to PepT1-expressing P. pastoris cells by 50%
Description: as §1

[5] = molecular target: T2, Prolidase from porcine kidney (Sus scrofa, UniProt A0A5G2QQV1); experiment: Cross reacting enzymes - prolidase; type: biochemical; conditions: substrate Ile-Pro-OH, pH 7.6, read-out: IC50 against prolidase
T2 construct: Prolidase from porcine kidney (ICN Biomedicals, Eschwege, Germany); purchased ICN Biomedicals, Eschwege, Germany; host or cells: porcine kidney
T2 sequence (A0A5G2QQV1 1-463): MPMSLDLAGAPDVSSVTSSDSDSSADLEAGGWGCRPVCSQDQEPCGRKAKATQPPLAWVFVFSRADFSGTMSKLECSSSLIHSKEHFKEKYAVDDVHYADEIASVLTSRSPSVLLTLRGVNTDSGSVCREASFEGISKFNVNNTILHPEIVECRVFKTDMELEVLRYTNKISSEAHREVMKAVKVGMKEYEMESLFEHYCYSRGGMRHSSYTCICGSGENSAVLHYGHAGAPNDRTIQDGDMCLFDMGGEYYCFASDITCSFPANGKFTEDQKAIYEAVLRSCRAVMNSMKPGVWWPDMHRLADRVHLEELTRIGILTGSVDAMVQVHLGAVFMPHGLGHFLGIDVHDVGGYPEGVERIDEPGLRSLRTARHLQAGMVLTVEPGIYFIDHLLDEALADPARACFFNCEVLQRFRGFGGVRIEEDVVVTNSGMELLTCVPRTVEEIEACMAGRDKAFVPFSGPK
Procedure: Prolidase (EC 3.4.13.9) was first described by Bergmann & Fruton (Bergmann, M. & Fruton, J S, 1937, J. Biol. Chem. 189-202). Prolidase releases the N-terminal amino acid from Xaa-Pro dipeptides and has a pH optimum between 6 and 9.
Prolidase from porcine kidney (ICN Biomedicals, Eschwege, Germany) was solved (1 mg/ml) in assay buffer (20 mM NH4(CH3COO)2, 3 mM MnCl2, pH 7.6). In order to get a fully active enzyme the solution was incubated for 60 min at room temperature.
450 μl glutaminyl pyrrolidine or glutaminyl thiazolidine in an concentration range of 5*10^−3 M-5*10^−7 M were admixed with 500 μl buffer solution (20 mM NH4(CH3COO)2, pH 7.6) and 250 μl Ile-Pro-OH (0.5 mM in the assay, mixture). The assay mixture was pre-incubated at 30° C. for 5 min. After pre-incubation, 75 μl Prolidase (1:10 diluted in assay buffer) were added and measurement was performed at 30° C. and λ=220 nm for 20 min using a UV/Vis photometer, UV1 (Thermo Spectronic, Cambridge, UK).
The IC 50-values were calculated using Graphit 4.0.15 (Erithacus Software, Ltd., UK).

[6] = molecular target: T3, plasma DPIV activity (Rattus norvegicus, UniProt P14740); experiment: DPIV inhibiting activity after intravasal and oral administration to Wistar rats; type: in vivo; conditions: rat
T3 construct: from tissue; host or cells: plasma of Wistar rats
T3 sequence (P14740 38-767 limits assumed): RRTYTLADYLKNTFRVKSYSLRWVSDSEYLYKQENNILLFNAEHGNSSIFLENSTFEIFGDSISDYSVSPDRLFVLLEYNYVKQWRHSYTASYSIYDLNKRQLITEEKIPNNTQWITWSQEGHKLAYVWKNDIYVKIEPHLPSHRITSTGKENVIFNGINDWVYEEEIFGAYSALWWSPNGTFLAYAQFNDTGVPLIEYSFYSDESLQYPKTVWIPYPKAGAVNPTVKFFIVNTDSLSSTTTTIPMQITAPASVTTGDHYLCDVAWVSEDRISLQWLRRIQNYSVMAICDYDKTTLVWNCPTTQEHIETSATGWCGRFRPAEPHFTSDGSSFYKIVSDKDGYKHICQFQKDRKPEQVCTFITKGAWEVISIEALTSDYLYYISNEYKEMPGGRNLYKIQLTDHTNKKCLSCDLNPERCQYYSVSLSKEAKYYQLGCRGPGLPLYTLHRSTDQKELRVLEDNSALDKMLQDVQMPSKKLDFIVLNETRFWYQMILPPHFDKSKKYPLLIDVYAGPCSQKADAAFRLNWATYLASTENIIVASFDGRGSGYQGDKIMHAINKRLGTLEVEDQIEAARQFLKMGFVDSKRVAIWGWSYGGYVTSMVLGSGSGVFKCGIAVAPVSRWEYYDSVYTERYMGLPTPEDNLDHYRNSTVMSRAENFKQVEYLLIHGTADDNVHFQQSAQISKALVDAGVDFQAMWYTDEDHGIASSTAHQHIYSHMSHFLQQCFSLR
Procedure: Male Wistar rats (Shoe: Wist(Sho)) with a body weight ranging between 250 and 350 g were purchased from Tierzucht Schönwalde (Schönwalde, Germany).
Animals were single-caged under conventional conditions with controlled temperature (22±2° C.) on a 12/12 hours light/dark cycle (light on at 06:00 AM). Standard pelleted chow (ssniff® Soest, Germany) and tap water acidified with HCl were allowed ad libitum.
After ≧one week of adaptation at the housing conditions, catheters were implanted into the carotid artery of Wistar rats under general anaesthesia (i.p. injection of 0.25 ml/kg b.w. Rompun® [2%], BayerVital, Germany and 0.5 ml/kg b.w. Ketamin 10, Atarost GmbH & Co., Twistringen, Germany). The animals were allowed to recover for one week. The catheters were flushed with heparin-saline (100 IU/ml) three times per week. In case of catheter dysfunction, a second catheter was inserted into the contra-lateral carotid artery of the respective rat. After one week of recovery from surgery, this animal was reintegrated into the study. In case of dysfunction of the second catheter, the animal was withdrawn from the study. A new animal was recruited and the experiments were continued in the planned sequence, beginning at least 7 days after catheter implantation.
After overnight fasting, 100 μl samples of heparinised arterial blood were collected at −30, −5, and 0 min. […] In the case of oral administration, an additional volume of 1 ml saline was injected into the arterial catheter. In the case of infra-arterial administration, the catheter was immediately flushed with 30 μl saline and an additional 1 ml of saline was given orally via the feeding tube.
All blood samples were collected into ice cooled Eppendorf tubes (Eppendorf-Netheler-Hinz, Hamburg, Germany) filled with 10 μl 1M sodium citrate buffer (pH 3.0) for plasma DPIV activity measurement. Eppendorf tubes were centrifuged immediately (12000 rpm for 2 min, Hettich Zentrifuge EBA 12, Tuttlingen; Germany): The plasma fractions were stored on ice until analysis or were frozen at −20° C. until analysis. All plasma samples were labelled with the following data:
The assay mixture for determination of plasma DPIV activity consisted of 80 μl reagent and 20 μl plasma sample. […] The DPIV activity was expressed in mU/ml.
All parameters were analysed in a descriptive manner including mean and SD.

[7] = In vivo inactivation of glutaminyl thiazolidine after oral administration to Wistar rats; conditions: plasma LC/MS
Procedure: Glutaminyl thiazolidine was administered to Wistar rats orally as described in example 9.
After application of placebo or glutaminyl thiazolidine, arterial blood samples were taken at 2.5, 5, 7.5, 10, 15, 20, 40, 60 and 120 min from the carotid catheter of the conscious unrestrained rats to determine the formation of degradation products of glutaminyl thiazolidine.
For analysis, simple solid phase extraction procedure on C18 cartridges was used to isolate the compounds of interest from the plasma. The extracts were analysed using reversed-phase liquid chromatography on Lichrospher 60 RP Select B column hyphenated with tandem mass spectrometry operating in the APCI positive mode. An internal standard method was used for quantification.

[8] = Circulating half-life; type: in vivo; conditions: 18 hours following dosing
Procedure: (§2) Every four weeks from the start of the experiment, an oral glucose tolerance test (OGTT) was performed: animals were fasted for 18 hours following the 1700 h dosing and administered 1 g/kg glucose orally.

[9] = test system: F344 rats; experiment: Chronic intragastric infusion via osmotic minipumps over two weeks - blood pressure; type: in vivo, rat
Procedure: Reduced expression of the ectopeptidase DPIV and lack of DPIV-like activity in mutant F344 rats lacking DPIV enzymic activity and expression results in a lowered blood pressure. Mutant F344 substrains lacking DPIV enzymic activity and wild-type-like F344 were tested.

[10] = test system: fatty (fa/fa) VDF Zucker rats; experiment: Chronic oral treatment of fatty Zucker rats - fasting blood glucose; type: in vivo, rat; conditions: 10 mg/kg oral gavage twice daily, 12 weeks
Procedure: (§3) Animals were housed singly, on a 12 hour light/dark cycle (lights on at 6 am) and allowed access to standard rat food, and water ad libitum.
Every two days, body weight, morning and evening blood glucose, and food and water intake were assessed. Blood samples for glucose determination were acquired from tail bleeds, and measured using a SureStep glucose analyzer (Lifescan Canada Ltd., Burnaby).
as §2

[11] = test system: fatty (fa/fa) VDF Zucker rats; experiment: Chronic oral treatment of fatty Zucker rats - systolic blood pressure (tail-cuff); type: in vivo, rat; conditions: 10 mg/kg oral gavage twice daily
Procedure: as §3
Systolic blood pressure was measured weekly using the tail-cuff procedure.

Imax, inward currents generated by the transport [2]: 25 ± 8 nA
suppression of the enzyme-catalyzed hydrolysis of GIP1-42 and GLP-17-36 [3]: complete suppression
EC50 [4]: 980 µM
Compound: CCC(C)C(N)C(=O)N1CCSC1 (centres unmarked) [isoleucyl thiazolidine]
circulating glucose concentration after intraduodenal (i.d.) glucose ([1]; 0.1 mg per kg, versus untreated controls): more rapid reduction
effect on circulating glucose after i.v. administration of the same amount of glucose ([1]; inhibitor-treated): no comparable effect

IC50 [5]: > 3000 µM
inhibition at 100 mg/kg ([6]; iv, intra-vasal (intra-arterial) route, read-out: in vivo DPIV-inhibition at tmax, i.v.): 88%
inhibition at 100 mg/kg ([6]; oral, read-out: in vivo DPIV-inhibition at tmax, p.o.): 71%
degradation of the compound in vivo [7]: degradation of the compound was found
degradation product [7]: pyroglutaminyl thiazolidine
Compound: NC(=O)CCC(N)C(=O)N1CCSC1 (centres unmarked) [Gln-Thia, glutaminyl thiazolidine]

Compound: CC[C@H](C)[C@H](N)C(=O)N1CCSC1 [Isoleucyl thiazolidine fumarate]
number of circulating half-lives equivalent to the 18 hours fasting period [8]: ~12 circulating half-lives
blood pressure [9]: dose-dependently reduced
fasting blood glucose [10]: dramatic reduction and almost normalization
systolic blood pressure [11]: stabilization

— patent US20070207946A1, “Dipeptidyl peptidase IV inhibitors and their uses for lowering blood pressure levels” (priority 2001, published 2007)
